Structures can show the parent of a compound that is named as a salt.
Columns and labels:
[1] = biological target: uPA (Homo sapiens (Human), UniProt P00749); assay: Inhibition constants for uPA, determined as in Stürzebecher et al. 1997; assay type: biochemical
[2] = biological target: plasmin (Homo sapiens (Human), UniProt P00747); assay: Inhibition constants for plasmin, determined in analogy to uPA; assay type: biochemical
[3] = biological target: thrombin (Homo sapiens (Human), UniProt P00734); assay: Inhibition constants for thrombin, determined in analogy to uPA; assay type: biochemical
[4] = tested on: lacZ-labeled human fibrosarcoma cell line (HT1080 AN PKZ12 K15-1); assay: Inhibiting metastasis in an animal model (lung metastases, lacZ-labeled human fibrosarcoma cells i.v.); assay type: in vivo, mice (strain CD1 nu/nu); settings: mice, 2 i.p. doses of 1.5 mg/kg daily from day −1 to day 21, lungs evaluated on day 22
Protocol: The influence of the inhibitor benzylsulfonyl-dSer-Ser-4-amidinobenzylamide on metastasis was investigated in female mice (strain CD1 nu/nu, approx. 25 g body weight, Charles River, Sulzfeld). […] from a lacZ-labeled human fibrosarcoma cell line (HT1080 AN PKZ12 K15-1, dissolved in 200 μl of PBS) were administered to the mice i.v. (Krüger et al., Cancer Metastasis Rev. 1998-99, 17, 285-294 and Krüger et al., Oncogene 1998, 16, 2419-2423). The mice in the treated group (n=17) were given 2 i.p. doses (in each case 1.5 mg/kg) of the inhibitor daily from day −1 (one day before the tumor cell inoculation) through to the 21st day (a total of 23 days). The mice in the control group (n=10) were correspondingly given 200 μl of pyrogen-free water containing 5% (v/v) ethanol. On day 22, the mice were sacrificed and the lungs were fixed in 2% formalin and 0.2% glutaraldehyde; after that, the lungs were stained with X-Gal (5-Br-4-Cl-3-indolyl-β-D-galactoside) and the number of lung metastases was determined.

[5] = Elimination (β phase) half-life in rats after intravenous administration, plasma levels by HPLC; settings: for half-life: female, Wistar, rat, plasma, iv, 1 mg/kg; for elimination (β phase) half-life t1/2: rats, intravenous administration 1 mg/kg
Protocol: Female Wistar rats (240-300 g body weight) were anesthetized (ethylurethane, 2.5 g/ml in NaCl, 0.5 ml/100 g rat), after which the A. carotis located in the neck was exposed. A catheter inserted into this vessel enabled blood to be removed at specified times. The volume administered was 0.5 ml, while 0.9% NaCl was used as the administration solution. […] The resultant loss of blood was offset, immediately after removal of the sample, with 500 μl of 0.9% NaCl solution. Citrate plasma was obtained by centrifuging the blood at 1200×g for 10 min.

[6] = biological target: trypsin; assay: Inhibition constants for trypsin, determined in analogy to uPA; assay type: biochemical
[7] = biological target: sc urokinase (Homo sapiens (Human), UniProt P00749); assay: Inhibiting urokinase with 4-amidinobenzylamide compounds (chromogenic substrate Bzl-βAla-Gly-Arg-pNA, Dixon Ki); assay type: biochemical; settings: 25° C., pH 8.0, means of at least three determinations
Excerpt: Determining the Inhibitory Effect
The Ki values are the means of at least three determinations.

[8] = after s.c. administration; following acylation of the D-Ser hydroxyl; cited from earlier work
[9] = biological target: trypsin (Bos taurus, UniProt P00760); assay: Inhibition constants for trypsin, determined in analogy to uPA; assay type: biochemical
Chain of trypsin (Bos taurus, UniProt P00760) (P00760 24-246 limits assumed): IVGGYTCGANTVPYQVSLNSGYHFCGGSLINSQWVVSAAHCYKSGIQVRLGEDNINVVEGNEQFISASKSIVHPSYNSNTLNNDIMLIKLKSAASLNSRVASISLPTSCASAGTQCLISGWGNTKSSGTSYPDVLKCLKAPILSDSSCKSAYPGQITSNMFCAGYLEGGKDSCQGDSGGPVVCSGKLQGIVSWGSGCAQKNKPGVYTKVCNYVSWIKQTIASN

Chain of trypsin (P00760 24-246 limits assumed): as above
Chain of plasmin (P00747 581-810, species assumed): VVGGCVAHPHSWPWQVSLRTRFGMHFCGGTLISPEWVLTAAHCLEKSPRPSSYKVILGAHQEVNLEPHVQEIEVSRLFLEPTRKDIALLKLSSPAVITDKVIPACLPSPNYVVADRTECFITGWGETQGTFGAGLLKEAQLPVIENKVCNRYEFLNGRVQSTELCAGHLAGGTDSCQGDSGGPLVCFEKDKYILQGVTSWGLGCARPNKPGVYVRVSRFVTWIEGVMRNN
Chain of plasmin (P00747 97-580 partner, species assumed): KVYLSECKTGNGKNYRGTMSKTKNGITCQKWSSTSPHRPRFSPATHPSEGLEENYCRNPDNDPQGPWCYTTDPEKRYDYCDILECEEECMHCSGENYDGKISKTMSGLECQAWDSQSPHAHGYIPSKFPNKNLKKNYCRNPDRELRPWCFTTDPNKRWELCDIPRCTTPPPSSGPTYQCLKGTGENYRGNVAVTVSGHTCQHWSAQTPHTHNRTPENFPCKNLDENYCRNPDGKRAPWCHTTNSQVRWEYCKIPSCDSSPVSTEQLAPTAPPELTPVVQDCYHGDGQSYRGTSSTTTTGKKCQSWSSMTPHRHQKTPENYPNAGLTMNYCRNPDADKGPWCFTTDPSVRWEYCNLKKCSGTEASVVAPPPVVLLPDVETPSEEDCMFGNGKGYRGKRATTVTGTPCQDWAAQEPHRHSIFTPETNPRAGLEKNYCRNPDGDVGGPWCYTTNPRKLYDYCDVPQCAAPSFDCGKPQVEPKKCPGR

| Molecule | Ki [1] [nM] | Ki [2] [nM] | Ki [3] [nM] | number of lung metastases as compared with the control group (100%) [4] [%] | half-life [5] [min] | Ki [6] [nM] | elimination (β phase) half-life t1/2 [5] [min] | Ki [7] [nM] | relative bioavailability [8] [%] | Ki [9] [nM] |
| --- | --- | --- | --- | --- | --- | --- | --- | --- | --- | --- |
| N=C(N)c1ccc(CNC(=O)[C@H](CO)NC(=O)[C@@H](CO)NS(=O)(=O)Cc2ccccc2)cc1 [R=H, X=CH, R1=CH2—OH, Benzylsulfonyl-dSer-Ser-4-amidinobenzylamide×TFA] | 25 | 750 | 14000 | 4.6 | 30 |  |  |  |  |  |
| N=C(N)c1ccc(CNC(=O)[C@H](CO)NC(=O)[C@@H](CO)NS(=O)(=O)Cc2cccc(C(=O)O)c2)cc1 [R=3-COOH, X=CH, R1=CH2—OH] | 75 | 4200 | 200000 |  |  | 58 | 25.8 |  |  |  |
| N=C(N)c1ccc(CNC(=O)CNC(=O)[C@@H](CO)NS(=O)(=O)Cc2ccc(Cl)c(Cl)c2)cc1 [R=3,4-di-Cl, X=CH, R1=H] | 110 | 32000 | 8300 |  |  | 600 |  |  |  |  |
| N=C(N)c1ccc(CNC(=O)[C@H](CC(=O)O)NC(=O)[C@@H](CO)NS(=O)(=O)Cc2ccccc2)cc1 |  |  |  |  |  |  |  | 860 |  |  |
| COC(=O)c1ccc(CS(=O)(=O)N[C@H](CO)C(=O)N[C@@H](CO)C(=O)NCc2ccc(C(=N)N)cc2)cc1 [R=4-COOMe, X=CH, R1=CH2—OH] | 230 | 960 | 4200 |  |  | 20 |  |  |  |  |
| N=C(N)c1ccc(CNC(=O)[C@H](COCc2ccccc2)NC(=O)[C@@H](CO)NS(=O)(=O)Cc2ccccc2)cc1 [R=H, X=CH, R1=CH2—O(Bzl)] | 28 | 270 | 480 |  |  | 6.8 |  |  |  |  |
| Cc1ccc(CS(=O)(=O)N[C@H](CO)C(=O)NCC(=O)NCc2ccc(C(=N)N)cc2)cc1 [R=4-Me, X=CH, R1=H] | 58 | 18000 | 8000 |  |  | 210 |  |  |  |  |
| CC(O)[C@H](NC(=O)[C@@H](CO)NS(=O)(=O)Cc1ccccc1)C(=O)NCc1ccc(C(=N)N)cc1 (stereo partly drawn) [R=H, X=CH, R1=CH(OH)CH3] | 110 | 1400 | 4000 |  |  | 30 |  |  |  |  |
| N=C(N)c1ccc(CNC(=O)CNC(=O)[C@@H](CO)NS(=O)(=O)Cc2ccc(Cl)cc2)cc1 [R=4-Cl, X=CH, R1=H] | 32 | 32000 | 7900 |  |  | 350 |  |  |  |  |
| N#Cc1ccc(CS(=O)(=O)N[C@H](CO)C(=O)NCC(=O)NCc2ccc(C(=N)N)cc2)cc1 [R=4-CN, X=CH, R1=CH] | 89 | 27000 | 8500 |  |  | 340 |  |  |  |  |
| N=C(N)c1ccc(CNC(=O)[C@H](CN)NC(=O)[C@@H](CO)NS(=O)(=O)Cc2ccccc2)cc1 [R=H, X=CH, R1=CH2—NH2] | 36 | 810 | 780 |  |  | 21 | 24 |  |  |  |
| N=C(N)c1ccc(CNC(=O)[C@H](Cc2cnc[nH]2)NC(=O)[C@@H](CO)NS(=O)(=O)Cc2ccccc2)cc1 [Example 12, Benzylsulfonyl-dSer-His-4-Amba] | 110 | 400 | 8500 |  |  | 25 |  |  |  |  |
| N=C(N)c1ccc(CNC(=O)[C@H](CCCN=C(N)N)NC(=O)[C@@H](CO)NS(=O)(=O)Cc2ccccc2)cc1 [X=Arg, Benzylsulfonyl-dSer-Arg-4-amidinobenzylamide×2 TFA] |  | 200 | 4700 |  | 36 |  |  |  |  |  |
| N=C(N)c1ccc(CNC(=O)[C@H](CO)NC(=O)[C@@H](CO)NS(=O)(=O)Cc2ccc(C(=O)O)cc2)cc1 [R=4-COOH, X=CH, R1=CH2—OH] | 230 | 6200 | 120000 |  |  | 100 | 25.8 |  |  |  |
| N=C(N)c1ccc(CNC(=O)[C@H](CCCCN)NC(=O)[C@@H](CO)NS(=O)(=O)Cc2ccccc2)cc1 [X=Lys, Benzylsulfonyl-dSer-Lys-4-amidinobenzylamide×2 TFA] |  | 360 | 4300 |  | 42 |  |  |  |  |  |
| N=C(N)c1ccc(CNC(=O)CNC(=O)[C@@H](CO)NS(=O)(=O)Cc2ccccc2C(=O)O)cc1 [R=2-COOH, X=CH, R1=H] | 370 | 220000 | 56000 |  |  | 2400 |  |  |  |  |
| COC(=O)c1cccc(CS(=O)(=O)N[C@H](CO)C(=O)NCC(=O)NCc2ccc(C(=N)N)cc2)c1 [R=3-COOMe, X=CH, R1=H] | 120 | 28000 | 42000 |  |  | 290 |  |  |  |  |

| Molecule | Ki [1] [nM] | Ki [2] [nM] | Ki [3] [nM] | number of lung metastases as compared with the control group (100%) [4] [%] | half-life [5] [min] | Ki [6] [nM] | elimination (β phase) half-life t1/2 [5] [min] | Ki [7] [nM] | relative bioavailability [8] [%] | Ki [9] [nM] |
| --- | --- | --- | --- | --- | --- | --- | --- | --- | --- | --- |
| N=C(N)c1ccc(CNC(=O)CNC(=O)[C@@H](CN)NS(=O)(=O)Cc2ccccc2)cc1 [Example 11, Benzylsulfonyl-dDap-Gly-4-Amba] | 180 | 9600 | 10000 |  |  | 180 |  |  |  |  |
| CC(C)COC(=O)N[C@H](CO)C(=O)N[C@@H](C)C(=O)N[C@H](C=O)CCCNC(=N)N [iBuOCO-D-Ser-Ala-Arg-H] |  |  |  |  |  |  |  |  | 87 |  |
| COC(=O)c1ccc(CS(=O)(=O)N[C@H](CO)C(=O)NCC(=O)NCc2ccc(C(=N)N)cc2)cc1 [R=4-COOMe, X=CH, R1=H] | 620 | 17000 | 9400 |  |  | 180 |  |  |  |  |
| N=C(N)c1ccc(CNC(=O)CNC(=O)[C@@H](CO)NS(=O)(=O)Cc2ccccc2)cc1 [R=H, X=CH, R1=H, Benzylsulfonyl-D-Ser-Gly-4-amidinobenzylamide] |  | 11000 | 13000 |  |  | 150 | 17.4 |  |  |  |
| C[C@H](NC(=O)[C@@H](CO)NS(=O)(=O)Cc1ccc(C(=O)O)cc1)C(=O)NCc1ccc(C(=N)N)cc1 [R=4-COOH, X=CH, R1=CH3] | 38 | 3000 | 2300 |  |  | 13 | 39.6 |  |  |  |
| N=C(N)c1ccc(CNC(=O)CNC(=O)[C@@H](CO)NS(=O)(=O)Cc2cccc(C(=O)O)c2)cc1.O=C(O)C(F)(F)F [R=3-COOH, X=CH, R1=H, 3-(HOOC)Benzylsulfonyl-dSer-Gly-4-amidinobenzylamide×TFA] | 160 | 59000 | 150000 |  | 78 |  |  |  |  |  |
| N=C(N)c1ccc(CNC(=O)CNC(=O)[C@@H](CO)NS(=O)(=O)Cc2ccc(C(=O)O)cc2)cc1 [R=4-COOH, X=CH, R1=H] | 150 | 35000 | 170000 |  |  | 480 | 120 |  |  |  |
| N=C(N)c1ccc(CNC(=O)CNC(=O)[C@@H](CO)NS(=O)(=O)Cc2ccc(CN)cc2)cc1 [R=4-(NH2—CH2), X=CH, R1=H, 4-(Aminomethyl)benzylsulfonyl-dSer-Gly-4-amidinobenzylamide×2 TFA] |  | 7400 | 8000 |  |  |  |  |  |  |  |
| N=C(N)c1ccc(CNC(=O)[C@H](CCC(=O)O)NC(=O)[C@@H](CO)NS(=O)(=O)Cc2ccccc2)cc1 [Benzylsulfonyl-D-Ser-Glu-4-amidinobenzylamide×TFA] |  |  |  |  |  |  |  | 160 |  |  |
| CC(OCc1ccccc1)[C@H](NC(=O)[C@@H](CO)NS(=O)(=O)Cc1ccccc1)C(=O)NCc1ccc(C(=N)N)cc1 (stereo partly drawn) [R=H, X=CH, R1=CH(OBzl)CH3] | 61 | 1100 | 100 |  |  | 11 |  |  |  |  |
| N=C(N)c1ccc(CNC(=O)CNC(=O)[C@@H](CO)NS(=O)(=O)Cc2ccc(F)cc2)cc1 [R=4-F, X=CH, R1=H] | 31 | 20000 | 7900 |  |  | 110 |  |  |  |  |
| COC(=O)c1ccccc1CS(=O)(=O)N[C@H](CO)C(=O)NCC(=O)NCc1ccc(C(=N)N)cc1 [R=2-COOMe, X=CH, R1=H] | 83 | 38000 | 4000 |  |  | 400 |  |  |  |  |
| Benzylsulfonyl-dSer-Lys(CO—O-PEG5000-OMe)-4-amidinobenzylamide×Acetate [Example 9] | 95 | 730 | 1700 |  |  |  |  |  |  | 34 |
| N=C(N)c1ccc(CNC(=O)CNC(=O)[C@@H](CO)NS(=O)(=O)Cc2ccc(CC(=O)O)cc2)cc1 [Example 13, 4(HOOC—CH2)Benzylsulfonyl-dSer-Gly-4-Amba] | 130 | 27000 | 60000 |  |  | 300 |  |  |  |  |
| N=C(N)c1ccc(CNC(=O)[C@H](CCCCNC(=O)COCC(=O)NCCOCCOCCOCCOCCOCCOCCOCCN)NC(=O)[C@@H](CO)NS(=O)(=O)Cc2ccccc2)cc1 [Example 10, Bzls-dSer-Lys(CO—CH2—O—CH2—CO—NH—CH2—CH2-Hexaethylene-glycol-CH2—CH2—NH2)-4-amidinobenzylamide×2 TFA] | 42 | 530 | 1400 |  | 52.8 |  |  |  |  |  |
| C[C@H](NC(=O)[C@@H](CO)NS(=O)(=O)Cc1cccc(C(=O)O)c1)C(=O)NCc1ccc(C(=N)N)cc1 [R=3-COOH, X=CH, R1=CH3] | 30 | 4700 | 8300 |  |  | 21 | 25.2 |  |  |  |

— patent publication US8476306B2, “Urokinase inhibitors, production and use thereof” (The Medicines Company (Leipzig) GmbH, priority 2002, dated 2013)
